# Laboratory results as given in the supplement of paper PMC10307832.
# Tests used:
# Assay in all cases: relative viability (nuclei count vs DMSO), 5 days (fraction); higher = more cells survive
# Irinotecan + Pictilisib = compound: CCc1c2c(nc3ccc(OC(=O)N4CCC(N5CCCCC5)CC4)cc13)-c1cc3c(c(=O)n1C2)COC(=O)[C@]3(O)CC [Irinotecan] + CS(=O)(=O)N1CCN(Cc2cc3nc(-c4cccc5[nH]ncc45)nc(N4CCOCC4)c3s2)CC1 [Pictilisib] (partner 1 µM)
# Method in brief: (§1)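 Lung cancer cell lines in 1536-well plates were dosed by pin tool the day after seeding, either with one drug alone or with a fixed anchor-drug dose plus five library-drug doses (not always all listed) in √10 steps. After 5 days, cells were fixed and their nuclei stained in one step (final 0.05% Triton X-100, 1% formaldehyde, 1 ug/ml Hoechst), then counted on 4× images. Relative viability is the nuclei count in treated wells divided by that in vehicle wells. Values are medians of duplicate plates.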
# MK-8033 + Palbociclib = compound: Cn1cc(-c2cnc3ccc4ccc(CS(=O)(=O)NCc5ccccn5)cc4c(=O)c3c2)cn1 [MK-8033] + CC(=O)c1c(C)c2cnc(Nc3ccc(N4CCNCC4)cn3)nc2n(C2CCCC2)c1=O [Palbociclib] (partner 0.5 µM)
# Method in brief: as §1
# Irinotecan + Navitoclax = compound: CCc1c2c(nc3ccc(OC(=O)N4CCC(N5CCCCC5)CC4)cc13)-c1cc3c(c(=O)n1C2)COC(=O)[C@]3(O)CC [Irinotecan] + CC1(C)CCC(c2ccc(Cl)cc2)=C(CN2CCN(c3ccc(C(=O)NS(=O)(=O)c4ccc(N[C@H](CCN5CCOCC5)CSc5ccccc5)c(S(=O)(=O)C(F)(F)F)c4)cc3)CC2)C1 [Navitoclax] (partner 0.5 µM)
# Method in brief: as §1
# MK-8033 + Linsitinib = compound: Cn1cc(-c2cnc3ccc4ccc(CS(=O)(=O)NCc5ccccn5)cc4c(=O)c3c2)cn1 [MK-8033] + C[C@]1(O)C[C@@H](c2nc(-c3ccc4ccc(-c5ccccc5)nc4c3)c3c(N)nccn32)C1 [Linsitinib] (partner 1 µM)
# Method in brief: as §1
cell line,measurement,setting,value
UMC-11,relative viability,Irinotecan + Pictilisib; first compound 0.6325 µM,0.317
same,relative viability,Irinotecan + Pictilisib; first compound 2 µM,0.532
same,relative viability,Irinotecan + Pictilisib; first compound 6.325 µM,0.215
same,relative viability,Irinotecan + Pictilisib; first compound 20 µM,0.158
same,relative viability,MK-8033 + Palbociclib; first compound 0.02 µM,0.329
same,relative viability,MK-8033 + Palbociclib; first compound 0.06325 µM,0.337
same,relative viability,MK-8033 + Palbociclib; first compound 0.2 µM,0.3
same,relative viability,MK-8033 + Palbociclib; first compound 0.6325 µM,0.35
same,relative viability,MK-8033 + Palbociclib; first compound 2 µM,0.343
same,relative viability,Irinotecan + Navitoclax; first compound 0.6325 µM,0.235
same,relative viability,Irinotecan + Navitoclax; first compound 2 µM,0.208
same,relative viability,Irinotecan + Navitoclax; first compound 6.325 µM,0.163
same,relative viability,Irinotecan + Navitoclax; first compound 20 µM,0.147
same,relative viability,MK-8033 + Linsitinib; first compound 0.02 µM,0.973
same,relative viability,MK-8033 + Linsitinib; first compound 0.06325 µM,0.739
same,relative viability,MK-8033 + Linsitinib; first compound 0.2 µM,0.974
same,relative viability,MK-8033 + Linsitinib; first compound 0.6325 µM,0.969
same,relative viability,MK-8033 + Linsitinib; first compound 2 µM,0.979
